Laboratory results taken from patent US10010560B2, “Small molecule HSP70 inhibitors” (THE TRUSTEES OF THE UNIVERSITY OF PENNSYLVANIA, priority 2014, dated 2018).
Several values for one entry are separate records, joined by “and”; a condition that tells them apart may be missing. Equal entries are not always repeated. Values belong to the compound of their own block, whether it stands above or below them.

Tests used:
[1] = test system: melanoma tumor cell line WM989; assay: Combination with BRAF inhibitor Vemurafenib, viability; assay type: cell-based, human
Description: FIG. 6 is a line graph illustrating that PET-16 synergizes with the BRAF inhibitor Vemurafenib to reduce the viability of the melanoma tumor cell line WM989 (▪). WM989 cells treated singularly with Vemurafenib are depicted by (●). No synergy was detected between Vemurafenib and PES-Cl.

ADP-HSP70 (WT, aa 1-641) = target: T1, ADP-HSP70 (WT, aa 1-641) (Homo sapiens, UniProt P0DMV8, E110D); assay: ITC binding to ADP-bound full-length HSP70; settings: ITC, wild-type full-length ADP-bound HSP70
T1 construct: Full-length recombinant proteins of HSP70 (aa 1-641) as well as DnaK (aa 1-638); His6 (N); made in house; host or cells: E. coli BL21 Star (DE3)
T1 sequence (P0DMV8 whole entry E110D, the tested form may be a part): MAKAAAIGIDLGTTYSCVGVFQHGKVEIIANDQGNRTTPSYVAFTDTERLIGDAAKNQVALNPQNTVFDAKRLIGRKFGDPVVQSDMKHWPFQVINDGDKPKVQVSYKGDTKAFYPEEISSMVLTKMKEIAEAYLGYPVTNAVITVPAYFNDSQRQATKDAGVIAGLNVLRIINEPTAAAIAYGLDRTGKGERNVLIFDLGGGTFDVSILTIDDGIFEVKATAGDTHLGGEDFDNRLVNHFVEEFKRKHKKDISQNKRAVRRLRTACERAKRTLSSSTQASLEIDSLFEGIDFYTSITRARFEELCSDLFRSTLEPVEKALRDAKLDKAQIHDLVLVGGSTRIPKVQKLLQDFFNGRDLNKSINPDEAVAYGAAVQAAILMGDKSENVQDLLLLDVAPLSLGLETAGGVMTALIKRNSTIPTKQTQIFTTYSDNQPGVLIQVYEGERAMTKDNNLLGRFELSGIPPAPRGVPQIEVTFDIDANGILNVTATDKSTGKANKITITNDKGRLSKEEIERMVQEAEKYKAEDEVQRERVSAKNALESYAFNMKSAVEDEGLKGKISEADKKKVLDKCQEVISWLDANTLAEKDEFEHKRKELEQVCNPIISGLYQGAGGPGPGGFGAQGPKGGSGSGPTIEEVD
Description: The human stress-inducible HSP70 (residues 1-641 or 386-616 of SEQ ID NO: 2) and E. coli DnaK (residues 1-638, 389-607, or 393-507 of SEQ ID NO: 4) were cloned into the pET25 vector (EMD Millipore Chemicals, Inc., Billerica, Mass., USA) between the NdeI and XhoI restriction sites. The full-length HSP70 and DnaK mutants were constructed by PCR-based site-directed mutagenesis using the QuikChange™ Site-Directed Mutagenesis Kit (Agilent Technologies, Inc., Santa Clara, Calif., USA). All plasmid inserts were verified by DNA sequencing. All HSP70 and DnaK variants were produced with a N-terminal His6-tag in the E. coli BL21 Star (DE3) strain (Invitrogen catalog number C6010-03). The resulting strains were grown at 37° C. in LB medium containing 50 μg/mL of carbenicillin (Sigma-Aldrich Co., St. Louis, Mo., USA). At an OD600 about 0.3 to about 0.5, protein expression was induced with 0.5 mM isopropyl-β-D-thiogalactopyranoside (IPTG), and cells were subsequently grown at 25° C. for about 16 h. Cells were collected by centrifugation and resuspended in the Bugbuster® Master Mix (EMD Millipore Chemicals catalog number 71456-4), supplemented with protease inhibitors, 1 mM diethiothreitol (DTT) and 20 mM imidazole. The His6-tagged fusion proteins were isolated on Ni^2+-chelating resins (Ni-NTA Superflow, Qiagen catalog number 30410) by standard procedures. When necessary, size-exclusion chromatography on a Superdex® 200 or a Superose® 6 10/300 GL columns (GE Healthcare) analytical column pre-equilibrated with 1× Dulbecco's Phosphate Buffered Saline (DPBS—Invitrogen 14190-136), 1 mM Tris-HCl (pH 7.4) or 10 mM Tris-HCl (pH 7) was used as the final purification step. The purified DnaK proteins were dialyzed thoroughly against 1× DPBS with 5 mM DTT at 4° C., for crystallization trials involving the small molecule inhibitor PET-16. For isothermal titration calorimetry studies, all HSP70 and DnaK variants were dialyzed extensively against the buffers as noted below under the section entitled “Isothermal Titration calorimetry Studies”. The dialyzed proteins were subsequently microcentrifugated at 15,000×g for 5 min at 4° C. and aliquots of the soluble proteins were stored at −80° C.
(§1) All ITC experiments were performed using a MicroCal VP-ITC isothermal titration calorimeter (MicroCal). Both full-length HSP70 and DnaK proteins and DnaK (aa 393-507) proteins were prepared in 1 mM Tris-HCl (pH 7.4) buffer containing 3% dimethylsulfoxide (DMSO). The HSP70 (aa 386-616) protein was prepared in buffer containing 3% DMSO and 10 mM Tris-HCl, pH 7. The syringe was loaded with purified protein in either 1 mM Tris-HCl (pH 7.4) buffer containing 3% DMSO or 10 mM Tris-HCl (pH 7) buffer containing 3% DMSO. The sample cell of the calorimeter was loaded with PES, PET-16 or NRLLLTG (SEQ ID NO: 7) prepared in the same buffer. All solutions were degassed for 5 min.
The titrations involving the full-length purified proteins were performed at 25° C. with injection volumes of 12 μL and a spacing of 300 s. The titrations involving the purified HSP70 (aa 386-616) and DnaK (aa 393-507) were performed at 42° C. with injection volumes of 12 μL and a spacing of 300 s. Heat from the pre-injection was not used during fitting. The data were fit using a one-site binding model available in the Origin® ITC data analysis software (MicroCal Origin® V5.0, MicroCal Software, Northampton, Mass.). Error values obtained from the MicroCal Origin® V5.0 software were averaged and reported. […]

ATP-HSP70 (WT) = target: T2, ATP-HSP70 (WT) (Homo sapiens, UniProt P0DMV8, E110D); assay: ITC binding to ATP-bound full-length HSP70; settings: wild-type full-length ATP-bound HSP70
T2 construct: Full-length recombinant proteins of HSP70 (aa 1-641) as well as DnaK (aa 1-638); His6 (N); made in house; host or cells: E. coli BL21 Star (DE3)
T2 sequence (P0DMV8 whole entry E110D, the tested form may be a part): as above
Description: The human stress-inducible HSP70 (residues 1-641 or 386-616 of SEQ ID NO: 2) and E. coli DnaK (residues 1-638, 389-607, or 393-507 of SEQ ID NO: 4) were cloned into the pET25 vector (EMD Millipore Chemicals, Inc., Billerica, Mass., USA) between the NdeI and XhoI restriction sites. The full-length HSP70 and DnaK mutants were constructed by PCR-based site-directed mutagenesis using the QuikChange™ Site-Directed Mutagenesis Kit (Agilent Technologies, Inc., Santa Clara, Calif., USA). All plasmid inserts were verified by DNA sequencing. All HSP70 and DnaK variants were produced with a N-terminal His6-tag in the E. coli BL21 Star (DE3) strain (Invitrogen catalog number C6010-03). The resulting strains were grown at 37° C. in LB medium containing 50 μg/mL of carbenicillin (Sigma-Aldrich Co., St. Louis, Mo., USA). At an OD600 about 0.3 to about 0.5, protein expression was induced with 0.5 mM isopropyl-β-D-thiogalactopyranoside (IPTG), and cells were subsequently grown at 25° C. for about 16 h. Cells were collected by centrifugation and resuspended in the Bugbuster® Master Mix (EMD Millipore Chemicals catalog number 71456-4), supplemented with protease inhibitors, 1 mM diethiothreitol (DTT) and 20 mM imidazole. The His6-tagged fusion proteins were isolated on Ni^2+-chelating resins (Ni-NTA Superflow, Qiagen catalog number 30410) by standard procedures. When necessary, size-exclusion chromatography on a Superdex® 200 or a Superose® 6 10/300 GL columns (GE Healthcare) analytical column pre-equilibrated with 1× Dulbecco's Phosphate Buffered Saline (DPBS—Invitrogen 14190-136), 1 mM Tris-HCl (pH 7.4) or 10 mM Tris-HCl (pH 7) was used as the final purification step. The purified DnaK proteins were dialyzed thoroughly against 1× DPBS with 5 mM DTT at 4° C., for crystallization trials involving the small molecule inhibitor PET-16. For isothermal titration calorimetry studies, all HSP70 and DnaK variants were dialyzed extensively against the buffers as noted below under the section entitled “Isothermal Titration calorimetry Studies”. […]

HSP70 (aa 386-616) = target: T3, HSP70 (aa 386-616) (Homo sapiens, UniProt P0DMV8); assay: ITC binding to C-terminal domain of HSP70; settings: in words
T3 construct: His6 (N); made in house; host or cells: E. coli BL21 Star (DE3)
T3 sequence (P0DMV8 386-616): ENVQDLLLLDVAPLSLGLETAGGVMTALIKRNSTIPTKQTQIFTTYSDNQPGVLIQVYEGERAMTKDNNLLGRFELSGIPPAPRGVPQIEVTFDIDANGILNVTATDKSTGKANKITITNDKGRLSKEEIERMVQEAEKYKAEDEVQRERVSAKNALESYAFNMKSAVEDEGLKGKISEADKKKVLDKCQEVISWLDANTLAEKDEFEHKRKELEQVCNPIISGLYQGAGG
Description: The human stress-inducible HSP70 (residues 1-641 or 386-616 of SEQ ID NO: 2) and E. coli DnaK (residues 1-638, 389-607, or 393-507 of SEQ ID NO: 4) were cloned into the pET25 vector (EMD Millipore Chemicals, Inc., Billerica, Mass., USA) between the NdeI and XhoI restriction sites. The full-length HSP70 and DnaK mutants were constructed by PCR-based site-directed mutagenesis using the QuikChange™ Site-Directed Mutagenesis Kit (Agilent Technologies, Inc., Santa Clara, Calif., USA). All plasmid inserts were verified by DNA sequencing. All HSP70 and DnaK variants were produced with a N-terminal His6-tag in the E. coli BL21 Star (DE3) strain (Invitrogen catalog number C6010-03). The resulting strains were grown at 37° C. in LB medium containing 50 μg/mL of carbenicillin (Sigma-Aldrich Co., St. Louis, Mo., USA). At an OD600 about 0.3 to about 0.5, protein expression was induced with 0.5 mM isopropyl-β-D-thiogalactopyranoside (IPTG), and cells were subsequently grown at 25° C. for about 16 h. Cells were collected by centrifugation and resuspended in the Bugbuster® Master Mix (EMD Millipore Chemicals catalog number 71456-4), supplemented with protease inhibitors, 1 mM diethiothreitol (DTT) and 20 mM imidazole. The His6-tagged fusion proteins were isolated on Ni^2+-chelating resins (Ni-NTA Superflow, Qiagen catalog number 30410) by standard procedures. […]

DnaK SBD = target: T4, DnaK SBD (Escherichia coli, UniProt P0A6Y8); assay: ITC binding to DnaK SBD; design: species or system E. coli; settings: in words
T4 construct: The titrations involving the purified HSP70 (aa 386-616) and DnaK (aa 393-507) were performed at 42° C; His6 (N); made in house; host or cells: E. coli BL21 Star (DE3)
T4 sequence (P0A6Y8 393-507): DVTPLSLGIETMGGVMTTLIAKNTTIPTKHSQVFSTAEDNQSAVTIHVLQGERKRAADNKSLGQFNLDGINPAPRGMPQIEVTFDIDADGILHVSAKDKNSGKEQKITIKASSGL
Experimental: as §1
The titrations involving the full-length purified proteins were performed at 25° C. with injection volumes of 12 μL and a spacing of 300 s. The titrations involving the purified HSP70 (aa 386-616) and DnaK (aa 393-507) were performed at 42° C. with injection volumes of 12 μL and a spacing of 300 s. Heat from the pre-injection was not used during fitting. The data were fit using a one-site binding model available in the Origin® ITC data analysis software (MicroCal Origin® V5.0, MicroCal Software, Northampton, Mass.). Error values obtained from the MicroCal Origin® V5.0 software were averaged and reported.

tumor cells = assay: Cytotoxic effect on tumor cells; assay type: cell-based; settings: in words
Description: FIGS. 1A to 1G provide the PET-16 and analogs thereof. FIGS. 1A-1C provide the chemical structures of PES, Biotin-PES, and PES-Cl, respectively. The chemical names and the major functional groups are indicated. […] The chemical names are indicated. FIGS. 1E-1G are the chemical structures of PET-16, PET-3C and PET-DR, respectively. The chemical names and the major functional groups are indicated.

E. coli DH5α = assay: Growth of E. coli DH5α at 43° C.; assay type: cell-based; settings: 6 h at 43° C.
Experimental: FIGS. 2A-2D illustrate the cytotoxicity of PET-16 to human tumor cells and its inhibition on E. coli growth. FIG. 2A is a line graph with data obtained from MTT assays of human melanoma cell lines treated with the indicated concentrations of PES or PET-16 for 72 h. The corresponding cell survival is normalized to vehicle (DMSO) treatment. Average and standard deviation (s.d.) from three independent experiments are shown. FIG. 2B are bar graphs of human melanoma (A875) cells and nontransformed human (IMR90) fibroblasts that were treated with DMSO, 10 μM PES or 10 μM PET-16 for 24 h. […] FIG. 2C is a line graph illustrating the growth of E. coli DH5α treated with different concentrations of PES or PET-16 for 6 h at 43° C. Error bars represent the s.d. of four independent experiments. FIG. 2D is a bar graph illustrating the growth of E. coli DH5α treated with DMSO, 30 μM PET-16 or 30 μM TPP for 6 h at 43° C. Error bars represent the s.d. of four independent experiments.
FIGS. 9A-9H illustrate that PET-16 binds directly to ADP-bound HSP70 and is cytotoxic to human tumor cells. FIGS. 9A-9C are ITC assays of the interaction of PET-3C with purified human HSP70-ADP (A), human HSP70-ATP (B) and DnaK-ADP (C) proteins. The data are representative of three independent experiments. FIG. 9D is a line graph of an MTT assay of the human melanoma cell line 1205 Lu treated with the indicated concentrations of PET-16 (---) or PET-3C (-) for 72 h. The corresponding cell survival is normalized to the DMSO-treatment. Average and standard deviation (s.d.) from three independent experiments are shown. FIG. 9E is a line graph illustrating the growth of E. coli DH5α strain treated with different concentrations of PET-16 (black) or PET-3C (gray) for 6 h at 43° C. Error bars represent the s.d. of four independent experiments. FIG. 9F is a bar graph illustrating the growth of E. coli DH5α treated with DMSO, 30 μM PET-16, 30 μM PET-3C or 30 μM TPP for 6 h at 43° C. Error bars represent the s.d. of four independent experiments. […]

Compound: 2-(3-chlorophenyl) ethynesulfonamide [PES-Cl, reference compound]
synergy with PLX4032 (Vemurafenib) [1]: did not synergize

Kd (ADP-HSP70 (WT, aa 1-641)): ~10 µM and 10 µM
Kd (ATP-HSP70 (WT)): 1250 ± 15 µM
Compound: CC(C)C[C@H](NC(=O)[C@H](CC(C)C)NC(=O)[C@H](CCCNC(=N)N)NC(=O)[C@@H](N)CC(N)=O)C(=O)N[C@@H](CC(C)C)C(=O)N[C@H](C(=O)NCC(=O)O)[C@@H](C)O [NRLLLTG, reference compound]

Compound: c1ccc(P(c2ccccc2)c2ccccc2)cc1 [TPP, triphenylphosphine]
binding to HSP70 SBD (HSP70 (aa 386-616)): does not bind
binding to DnaK SBD (DnaK SBD): does not bind
cytotoxicity for tumor cells (tumor cells): little discernible effect
effect on growth of E. coli (E. coli DH5α): no negative effect
